The source of these data is patent US12281122B1, “PI3K inhibitors” (Cogent Biosciences, Inc., priority 2023, dated 2025).

Usually IC50 stands for the concentration that gives 50% inhibition.

The structures appear in SMILES notation.

Experiment [1] concerns the target PI3Kα (Homo sapiens, UniProt P42336). Kind of experiment: PI3Kα enzyme assay (Transcreener ADP2 TR-FRET Red Assay). The class given is biochemical. To be noted: purified recombinant full-length protein; 2 hours pre-incubation with compound; read-out: PI3Kα WT IC50. In outline:
(§1)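 IC50 taken at 50 POC from a four-parameter logistic fit of TR-FRET (665/615 nm) ADP signal. Reactions used full-length recombinant enzyme, compound pre-incubation for 2 h, then 60 min with ATP and PI(4,5)P2 diC8 substrate at room temperature, pH 7.5 HEPES buffer with 25 mM MgCl2; compounds tested from 50,000 to 0.85 nM.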
(In general: Time-resolved FRET reads energy transfer from a long-lived donor to a nearby acceptor.)

Experiment [2] relates to SKBR3 (PI3Kα-Wild Type) cell line. The experiment is described as follows: HTRF phospho-AKT(S473) cell assay in SKBR3 cells. The class given is cell-based, human. The settings on record: Homo sapiens, SK-BR-3; SKBR3 (PI3Kα-Wild Type) cells, HTRF phospho-AKT(S473), 2 hours compound incubation, PDGF-BB stimulated. In outline: (§2)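 HTRF read-out of phospho-AKT(S473) in lysates gave IC50 values after 2 h compound exposure at 37° C. Dose series was 12 points at 1:3, topping at 5 μM for T47D and 10 μM for SKBR3. Only SKBR3 received 70 ng/ml PDGF-BB during the last 15 minutes.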

The subject of experiment [3] is T47D (PI3Kα-H1047R) cell line. The experiment is described as follows: HTRF phospho-AKT(S473) cell assay in T47D cells. Format: cell-based, human. The settings on record: Homo sapiens; T47D (PI3Kα-H1047R) cells, HTRF phospho-AKT(S473), 2 hours compound incubation. In outline: as §2
Experiment [4] deals with PI3Kα H1047R (Homo sapiens, UniProt P42336, H1047R). Kind of experiment: PI3Kα H1047R enzyme assay (Transcreener ADP2 TR-FRET Red Assay). The settings on record: purified recombinant full-length protein; 2 hours pre-incubation with compound. Format: biochemical. In outline:
as §1

Sequence of PI3Kα H1047R (P42336 whole entry H1047R): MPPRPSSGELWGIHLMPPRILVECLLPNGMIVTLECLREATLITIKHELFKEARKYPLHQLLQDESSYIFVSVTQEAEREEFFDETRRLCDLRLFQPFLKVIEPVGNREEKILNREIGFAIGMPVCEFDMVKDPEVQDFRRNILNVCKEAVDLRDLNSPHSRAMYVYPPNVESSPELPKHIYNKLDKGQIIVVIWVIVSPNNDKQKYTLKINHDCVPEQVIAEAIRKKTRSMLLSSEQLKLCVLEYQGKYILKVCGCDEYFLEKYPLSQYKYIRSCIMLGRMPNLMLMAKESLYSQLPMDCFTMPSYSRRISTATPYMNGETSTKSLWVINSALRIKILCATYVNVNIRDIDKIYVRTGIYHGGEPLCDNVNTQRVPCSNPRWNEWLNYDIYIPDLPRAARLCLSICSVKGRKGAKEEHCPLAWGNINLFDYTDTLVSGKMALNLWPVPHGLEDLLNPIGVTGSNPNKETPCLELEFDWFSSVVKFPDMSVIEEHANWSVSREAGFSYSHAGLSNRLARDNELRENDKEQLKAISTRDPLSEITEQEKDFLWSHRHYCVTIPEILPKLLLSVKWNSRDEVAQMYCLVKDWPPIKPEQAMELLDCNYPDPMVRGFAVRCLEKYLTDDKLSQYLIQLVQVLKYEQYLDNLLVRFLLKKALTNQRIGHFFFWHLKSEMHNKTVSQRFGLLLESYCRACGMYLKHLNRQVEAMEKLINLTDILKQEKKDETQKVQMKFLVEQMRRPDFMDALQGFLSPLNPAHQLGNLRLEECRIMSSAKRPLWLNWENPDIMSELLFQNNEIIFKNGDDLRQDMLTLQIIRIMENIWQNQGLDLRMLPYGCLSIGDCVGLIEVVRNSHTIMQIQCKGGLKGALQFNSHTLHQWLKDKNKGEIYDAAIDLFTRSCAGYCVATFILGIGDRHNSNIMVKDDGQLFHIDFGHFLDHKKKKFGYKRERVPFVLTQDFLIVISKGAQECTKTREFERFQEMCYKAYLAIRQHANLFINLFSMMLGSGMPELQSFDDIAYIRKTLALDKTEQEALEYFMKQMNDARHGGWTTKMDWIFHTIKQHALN
Sequence of PI3Kα H1047R (P27986 2-724 partner): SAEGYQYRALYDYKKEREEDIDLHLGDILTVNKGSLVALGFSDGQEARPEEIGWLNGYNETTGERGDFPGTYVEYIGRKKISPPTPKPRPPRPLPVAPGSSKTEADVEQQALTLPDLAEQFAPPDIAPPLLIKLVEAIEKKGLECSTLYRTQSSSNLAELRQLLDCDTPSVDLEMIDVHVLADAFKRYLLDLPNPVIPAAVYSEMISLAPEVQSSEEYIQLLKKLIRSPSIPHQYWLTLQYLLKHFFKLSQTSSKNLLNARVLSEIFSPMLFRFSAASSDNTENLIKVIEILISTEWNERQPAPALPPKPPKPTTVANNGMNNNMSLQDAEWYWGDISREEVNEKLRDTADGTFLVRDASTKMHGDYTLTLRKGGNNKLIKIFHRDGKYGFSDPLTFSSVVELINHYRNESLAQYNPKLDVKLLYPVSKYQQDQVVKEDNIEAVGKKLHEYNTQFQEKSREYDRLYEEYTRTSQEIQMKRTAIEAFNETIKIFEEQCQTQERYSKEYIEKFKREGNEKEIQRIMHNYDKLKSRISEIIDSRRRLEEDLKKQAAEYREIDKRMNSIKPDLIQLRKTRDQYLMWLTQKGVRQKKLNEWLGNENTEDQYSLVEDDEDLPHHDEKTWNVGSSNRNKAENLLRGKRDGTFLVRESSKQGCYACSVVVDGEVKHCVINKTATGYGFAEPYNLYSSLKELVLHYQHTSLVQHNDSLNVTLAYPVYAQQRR
Sequence of PI3Kα (P42336 whole entry): as the sequence (P42336 whole entry H1047R) above, with R1047H counted along it
Sequence of PI3Kα (P27986 2-724 partner): as the sequence (P27986 2-724 partner) above

Regarding `Cc1cc([C@@H](C)Nc2cn(C)nc2C(N)=O)c2nc(N3Cc4ccc(F)cc4C3)n(C)c(=O)c2c1` (single isomer, unassigned) [Compound 108], the IC50 in experiment [1] was at least 1000 nM; in experiment [2], at least 5000 nM; in experiment [3] it was 1000 to 5000 nM; in experiment [4], at least 1000 nM.
Regarding `Cc1cc([C@@H](C)Nc2ccc(Cl)nc2C(=O)NS(C)(=O)=O)c2nc(N3C[C@@H]4C[C@H]3CO4)n(C)c(=O)c2c1` [Compound 27, 3-(((R)-1-(2-((1S,4S)-2-oxa-5-azabicyclo[2.2.1]heptan-5-yl)-3,6-dimethyl-4-oxo-3,4-dihydroquinazolin-8-yl)ethyl)amino)-6-chloro-N-(methylsulfonyl) picolinamide], the IC50 was at least 1000 nM in experiment [1], 1000 to 5000 nM in experiment [2], below 250 nM in experiment [3] and 500 to 1000 nM in experiment [4].
Regarding `Cc1cc([C@@H](C)Nc2ccc(Cl)nc2C(=O)NS(C)(=O)=O)c2nc(NC34CC(C3)C4)n(C)c(=O)c2c1` [Compound 6, (R)-3-((1-(2-(bicyclo[1.1.1]pentan-1-ylamino)-3,6-dimethyl-4-oxo-3,4-dihydroquinazolin-8-yl)ethyl)amino)-6-chloro-N-(methylsulfonyl) picolinamide], the IC50 in experiment [1] is at least 1000 nM; in experiment [2], at least 5000 nM; in experiment [3], 1000 to 5000 nM; in experiment [4], at least 1000 nM.
With `Cc1cc([C@@H](C)Nc2ccc(Cl)nc2C(=O)NS(C)(=O)=O)c2nc(OC3CCC3)n(C)c(=O)c2c1` [Compound 52, (R)-6-chloro-3-((1-(2-cyclobutoxy-3,6-dimethyl-4-oxo-3,4-dihydroquinazolin-8-yl)ethyl)amino)-N-(methylsulfonyl) picolinamide], the IC50 in experiment [1] was at least 1000 nM; in experiment [2], 1000 to 5000 nM; in experiment [3], 500 to 1000 nM; in experiment [4], 100 to 250 nM.
On to `C[C@@H](Nc1ccc(Cl)[nH]c1=O)c1cc(F)cc2c(=O)n(C)c(N3Cc4cnn(C)c4C3)nc12` [Compound 100, (R)-8-(1-((6-chloro-2-oxo-1,2-dihydropyridin-3-yl)amino)ethyl)-6-fluoro-3-methyl-2-(1-methyl-4,6-dihydropyrrolo[3,4-c]pyrazol-5(1H)-yl)quinazolin-4(3H)-one], for which the IC50 in experiment [1] was at least 1000 nM; in experiment [2], at least 5000 nM; in experiment [3], below 250 nM; in experiment [4], below 100 nM.
For `C[C@@H](Nc1ccc(Cl)nc1C(=O)NS(C)(=O)=O)c1cccc2c(=O)n(C)c(N3CCC(F)(F)CC3)nc12` [Compound 39, (R)-6-chloro-3-((1-(2-(4,4-difluoropiperidin-1-yl)-3-methyl-4-oxo-3,4-dihydroquinazolin-8-yl)ethyl)amino)-N-(methylsulfonyl) picolinamide], the IC50 is at least 1000 nM in experiment [1], 1000 to 5000 nM in experiment [2], below 250 nM in experiment [3] and 500 to 1000 nM in experiment [4].
For the compound `Cc1cc([C@@H](C)Nc2ccn[nH]c2=O)c2nc(N3Cc4ccc(F)cc4C3)n(C)c(=O)c2c1` [Compound 95, (R)-2-(5-fluoroisoindolin-2-yl)-3,6-dimethyl-8-(1-((3-oxo-2,3-dihydropyridazin-4-yl)amino)ethyl)quinazolin-4(3H)-one], the IC50 was at least 1000 nM in experiment [1], 1000 to 5000 nM in experiment [2], 1000 to 5000 nM in experiment [3] and at least 1000 nM in experiment [4].
Take `Cc1cc2c(=O)n(C)c(N3Cc4ccc(F)cc4C3)nc2c([C@@H](C)Nc2ccc(Cl)nc2C(=O)NS(C)(=O)=O)n1` [Compound 72, (R)-6-chloro-3-((1-(2-(5-fluoroisoindolin-2-yl)-3,6-dimethyl-4-oxo-3,4-dihydro-pyrido[3,4-d]pyrimidin-8-yl)ethyl)amino)-N-(methylsulfonyl)picolinamide]: the IC50 in experiment [1] is at least 1000 nM; in experiment [2], 1000 to 5000 nM; in experiment [3] it was 250 to 500 nM; in experiment [4] it was 100 to 250 nM.
The like results for `Cc1cc([C@@H](C)Nc2ccc(Cl)nc2C(=O)NS(C)(=O)=O)c2nc(N3CCOCC3)n(C)c(=O)c2c1` [Compound 5, (R)-6-chloro-3-((1-(3,6-dimethyl-2-morpholino-4-oxo-3,4-dihydroquinazolin-8-yl)ethyl)amino)-N-(methylsulfonyl) picolinamide] were, in that order, at least 1000 nM, 1000 to 5000 nM, below 250 nM and 500 to 1000 nM.
In the case of `Cc1cc([C@@H](C)Nc2ccccc2S(=O)(=O)NC(=O)C(F)F)c2nc(N3Cc4ccc(F)cc4C3)n(C)c(=O)c2c1` [Compound 75, (R)-2,2-difluoro-N-((2-((1-(2-(5-fluoroisoindolin-2-yl)-3,6-dimethyl-4-oxo-3,4-dihydroquinazolin-8-yl)ethyl)amino)phenyl)sulfonyl)acetamide], the IC50 in experiment [1] is at least 1000 nM; in experiment [2], at least 5000 nM; in experiment [3], 1000 to 5000 nM; in experiment [4], at least 1000 nM.
Turning to `C[C@@H](Nc1ccc(Cl)nc1C(=O)NS(C)(=O)=O)c1cc(F)cc2c(=O)n(C)c(-c3cccc(F)c3F)nc12` [Compound 87, (R)-6-chloro-3-((1-(2-(2,3-difluorophenyl)-6-fluoro-3-methyl-4-oxo-3,4-dihydroquinazolin-8-yl)ethyl)amino)-N-(methylsulfonyl) picolinamide], the IC50 is at least 1000 nM in experiment [1], at least 5000 nM in experiment [2], 1000 to 5000 nM in experiment [3] and at least 1000 nM in experiment [4].
As to `CC(=O)NS(=O)(=O)c1nc(Cl)ccc1N[C@H](C)c1cc(C)cc2c(=O)n(C)c(N3CCC(F)(F)CC3)nc12` [Compound 78, (R)-N-((6-chloro-3-((1-(2-(4,4-difluoropiperidin-1-yl)-3,6-dimethyl-4-oxo-3,4-dihydroquinazolin-8-yl)ethyl)amino)pyridin-2-yl)sulfonyl)acetamide], the concentration for half-maximal inhibition (IC50) in experiment [1] is at least 1000 nM; in experiment [2] it was 1000 to 5000 nM; in experiment [3], 250 to 500 nM; in experiment [4], 500 to 1000 nM.
For the compound `C[C@@H](Nc1ccc(Cl)[nH]c1=O)c1cc(F)cc2c(=O)n(C)c(N3CCOCC3)nc12` [Compound 101, (R)-8-(1-((6-chloro-2-oxo-1,2-dihydropyridin-3-yl)amino)ethyl)-6-fluoro-3-methyl-2-morpholinoquinazolin-4(3H)-one], the 50% inhibitory concentration (IC50) was at least 1000 nM in experiment [1], at least 5000 nM in experiment [2], 1000 to 5000 nM in experiment [3] and 100 to 250 nM in experiment [4].
The like results for `Cc1cc([C@@H](C)Nc2ccc(Cl)nc2S(=O)(=O)NC(=O)N(C)C)c2nc(N3Cc4ccc(F)cc4C3)n(C)c(=O)c2c1` [Compound 71, (R)-6-chloro-N-(dimethylcarb-amoyl)-3-((1-(2-(5-fluoroisoindolin-2-yl)-3,6-dimethyl-4-oxo-3,4-dihydroquinazolin-8-yl)ethyl)amino)pyridine-2-sulfonamide] were, in that order, at least 1000 nM, at least 5000 nM, 1000 to 5000 nM and at least 1000 nM.
Turning to `Cc1cc([C@@H](C)Nc2ccc(Cl)nc2C(=O)NS(C)(=O)=O)c2nc(N3C[C@H](C)O[C@@H](C)C3)n(C)c(=O)c2c1` [Compound 25, 6-chloro-3-(((R)-1-(2-((2S,6S)-2,6-dimethylmorpholino)-3,6-dimethyl-4-oxo-3,4-dihydroquinazolin-8-yl)ethyl)amino)-N-(methylsulfonyl) picolinamide], the IC50 in experiment [1] is at least 1000 nM; in experiment [2] it was 1000 to 5000 nM; in experiment [3] it was 250 to 500 nM; in experiment [4] it was at least 1000 nM.
With `Cc1cc([C@@H](C)Nc2ccc(Cl)nc2C(=O)NS(C)(=O)=O)c2nc(N(C)Cc3cnn(C)c3)n(C)c(=O)c2c1` [Compound 48, (R)-6-chloro-3-((1-(3,6-dimethyl-2-(methyl((1-methyl-1H-pyrazol-4-yl)methyl)amino)-4-oxo-3,4-dihydroquinazolin-8-yl)ethyl)amino)-N-(methylsulfonyl) picolinamide], the IC50 in experiment [1] was at least 1000 nM; in experiment [2], 1000 to 5000 nM; in experiment [3], below 250 nM; in experiment [4], 100 to 250 nM.
For `Cc1cc([C@@H](C)Nc2ccc(Cl)nc2C(=O)NS(C)(=O)=O)c2nc(N(C)C)n(C)c(=O)c2c1` [Compound 40, (R)-6-chloro-3-((1-(2-(dimethylamino)-3,6-dimethyl-4-oxo-3,4-dihydroquinazolin-8-yl)ethyl)amino)-N-(methylsulfonyl) picolinamide], in that order: at least 1000 nM, 1000 to 5000 nM, 250 to 500 nM and at least 1000 nM.
The like results for `Cc1cc([C@@H](C)Nc2ccc(Cl)nc2C(=O)NS(C)(=O)=O)c2nc(-c3cccc(F)c3F)n(C)c(=O)c2c1` [Compound 82, (R)-6-chloro-3-((1-(2-(2,3-difluorophenyl)-3,6-dimethyl-4-oxo-3,4-dihydroquinazolin-8-yl)ethyl)amino)-N-(methylsulfonyl)picolinamide] were, in that order, at least 1000 nM, 1000 to 5000 nM, 500 to 1000 nM and at least 1000 nM.
